Measured values reported in publication PMC4707675 (ACS infectious diseases, 2015).
Converted amounts (≈) assume the structure as drawn. “And” between values parts separate entries of the source, which are not always exact repeats. Equal values may be shown once. Read-outs that look alike come from different tables or passages of the source.

Columns and labels:
[1] = test system: Mtb strain H37Rv; format: cell-based, Mycobacterium tuberculosis
[2] = biological target: T1, Mtb DHFR (Mycobacterium tuberculosis, UniProt P9WNX1); format: biochemical; conditions: read-out: Enzyme IC50 Mtb; purified Mtb DHFR
T1 sequence (P9WNX1 whole entry): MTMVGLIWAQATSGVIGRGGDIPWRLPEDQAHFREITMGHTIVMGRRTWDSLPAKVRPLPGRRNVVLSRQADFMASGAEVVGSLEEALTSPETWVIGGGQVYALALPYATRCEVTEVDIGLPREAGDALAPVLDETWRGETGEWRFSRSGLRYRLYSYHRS

[3] = test system: HepG2
[4] = format: in vitro ADME
[5] = test system: intracellular Mtb growth in macrophages (THP-1 cells); assay: Intracellular assay of Mtb clearance in THP-1 cells; format: cell-based, Mycobacterium tuberculosis; conditions: Mtb in THP-1 cells
[6] = test system: Mtb strain H37Rv; conditions: cited from earlier work; for activity against live Mtb: result in words; for MIC90 wt: wild-type Mtb, ref Nixon et al.[15]
[7] = biological target: T1, Mtb DHFR; conditions: cited from earlier work; for inhibition of the Mtb DHFR enzyme: result in words
[8] = biological target: T2, human DHFR (Homo sapiens, UniProt P00374); assay: Biochemical assay of human DHFR; conditions: read-out: Enzyme IC50 Human; recombinant human DHFR
T2 sequence (P00374 1-187): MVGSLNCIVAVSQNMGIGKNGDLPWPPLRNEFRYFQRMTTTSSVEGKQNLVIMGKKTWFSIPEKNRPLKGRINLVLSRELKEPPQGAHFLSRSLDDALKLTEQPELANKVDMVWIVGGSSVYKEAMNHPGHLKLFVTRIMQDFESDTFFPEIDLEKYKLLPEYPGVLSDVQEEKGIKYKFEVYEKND

[9] = in vivo; cited from earlier work
[10] = test system: HepG2 human hepatocytes

Structure (SMILES): N#Cc1ccc(Cn2ccc3c4c(N)nc(N)nc4ccc32)cc1 [PQD-1]
- MIC90 wt [1]: 0.5 µM and 0.50 µM
- IC50 [2]: 10.1 nM
- Tox50 HepG2 [3]: 10 µM
- in vitro clearance in mouse microsomes [4]: <0.5 mg/mL·g
- intracell MIC90 [5]: 0.7 µM

Structure (SMILES): COc1cc(NCc2ccc3nc(N)nc(N)c3c2C)cc(OC)c1OC [Trimetrexate]
- activity against live Mtb [6]: poor or no activity
- MIC90 wt [6]: 6.3 µM (≈ 2.33 µg/mL)
- MIC90 wt ([6]; listed as trimetrexate): 6.25 µM (≈ 2.31 µg/mL)
- inhibition of the Mtb DHFR enzyme [7]: strong inhibition

Structure (SMILES): CN(Cc1cnc2nc(N)nc(N)c2n1)c1ccc(C(=O)N[C@@H](CCC(=O)O)C(=O)O)cc1 [methotrexate]
- activity against live Mtb [6]: poor or no activity

Structure (SMILES): CC1(C)N=C(N)N=C(N)N1OCCCOc1cc(Cl)c(Cl)cc1Cl [WR99210]
- MIC90 wt [1]: 1 to 2 µM
- IC50 [8]: 9 nM
- toxicity in humans [9]: acute gastrointestinal toxicity
- IC50 ([7]; read-out: Enzyme IC50 Mtb, ref Nixon et al.[15]): 14 nM
- Tox50 HepG2 [3]: 40 µM
- in vitro clearance in mouse microsomes [4]: <0.5 mg/mL·g
- cell health: membrane permeability [10]: 19 µM
- cell health: mitochondrial potential [10]: 25 µM
- cell health: nuclear morphology [10]: 10 µM

Structure (SMILES): CCc1nc(N)nc(N)c1-c1ccc(Cl)cc1 [pyrimethamine]
- activity against live Mtb [6]: poor or no activity
- inhibition of the Mtb DHFR enzyme [7]: strong inhibition
